Measured values reported in patent publication US8575091B1, “Amylin analogues and pharmaceutical compositions thereof” (Novo Nordisk A/S, priority 2012, dated 2013).
Like-named read-outs stand apart in the source and are kept apart here. Numbered stars: 1 amine (or outer) side, 2 acyl side, 3 side chain; on linkers, the order of the positions; unused ones are H or OH. Bridge positions count the residues as written; N and C are the ends. Side chains are listed from the residue outwards. Peptide text beside a SMILES is read from it. * marks the point of attachment. C20 diacid = O=C(O)CCCCCCCCCCCCCCCCCCC(=O)*; γGlu = O=C(O)[C@H](CCC(=O)[*:2])N[*:1]

Columns and labels:
human amylin receptor = biological target: T1, human amylin receptor (Homo sapiens, UniProt O60896+P30988); assay: Assay (V) binding to the human amylin receptor (SPA, 125I-rat amylin); conditions: for IC50: read-out: hAmylin-R bind IC50
T1 construct: expressed in transfected cells
T1 sequence (P30988 25-474): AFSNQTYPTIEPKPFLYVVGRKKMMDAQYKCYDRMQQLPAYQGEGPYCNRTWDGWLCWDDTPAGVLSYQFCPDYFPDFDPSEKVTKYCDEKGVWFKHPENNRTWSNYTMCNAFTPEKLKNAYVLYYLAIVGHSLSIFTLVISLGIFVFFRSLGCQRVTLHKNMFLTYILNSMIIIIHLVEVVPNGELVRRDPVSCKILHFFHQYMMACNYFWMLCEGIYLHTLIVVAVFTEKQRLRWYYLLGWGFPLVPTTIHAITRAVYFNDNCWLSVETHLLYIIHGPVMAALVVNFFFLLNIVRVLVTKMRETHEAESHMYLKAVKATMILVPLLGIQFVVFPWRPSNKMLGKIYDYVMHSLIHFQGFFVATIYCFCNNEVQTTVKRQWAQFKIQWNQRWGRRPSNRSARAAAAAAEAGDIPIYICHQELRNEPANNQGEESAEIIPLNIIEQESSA
T1 sequence (O60896 24-148 partner): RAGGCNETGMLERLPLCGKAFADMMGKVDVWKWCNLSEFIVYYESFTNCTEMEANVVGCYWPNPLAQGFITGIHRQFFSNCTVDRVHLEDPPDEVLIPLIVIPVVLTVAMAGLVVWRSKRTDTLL
Summary of the method: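 SPA competition binding on membranes from Amylin 3(a)/CRE-luc cells, 35 ng/μL membranes with 0.05 mg/well beads. Buffer 50 mM Hepes pH 7.4, 1 mM CaCl2, 5 mM MgCl2, 0.1% OA, 0.02% Tween20. IC50 from one-site competition fit as affinity measure.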

[1] = Assay (IV) determination of solubility; type: physicochemical; conditions: for Solubility pH 6.5 Concentration (μM): pH 6.5, 18 hours room temperature; for Solubility pH 7.0 Concentration (μM): pH 7.0, 18 hours room temperature; for Solubility pH 7.5 Concentration (μM): pH 7.5, 18 hours room temperature; for Solubility pH 8.0 Concentration (μM): pH 8.0, 18 hours room temperature
Procedure: Assay (IV)—Determination of Solubility
The polypeptide was dissolved in water at ˜500 nmol/ml and mixed 1:1 with a series of buffers (100 mM glycylglycine pH 3.0, 100 mM glycylglycine pH 4.0, 100 mM glycylglycine pH 5.0, 100 mM bistrispropane pH 6.0, 100 mM bistrispropane pH 6.5, 100 mM bistrispropane pH 7.0, 100 mM bistrispropane pH 7.5, 100 mM bistrispropane pH 8.0). After 18 hours at room temperature the samples were centrifuged and the polypeptide concentration determined by UPLC.

[2] = biological target: T2, human calcitonin receptor (Homo sapiens, UniProt P30988); assay: Assay (II)a functional assay, human calcitonin receptor (CRE luciferase, BHK cells);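 also: luminescence from a CRE-driven luciferase reporter, read by single photon counting after cells were exposed to test samples for 3 h at 37 °C under 5% CO2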; type: cell-based; conditions: read-out: hCTR funct. EC50
T2 construct: expressed in transfected cells
T2 sequence (P30988 25-474): T1 sequence (P30988 25-474)

[3] = biological target: T2, human calcitonin receptor; assay: Assay (VII) binding to the human calcitonin receptor (SPA, 125I-Calcitonin); conditions: read-out: hCTR bind IC50;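 also: cell membranes coupled to SPA beads, competitive displacement read by scintillation counting, IC50 derived from a one-site competition fit as a measure of receptor affinity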
[4] = biological target: T3, human amylin receptor (amylin 3(a) receptor: human calcitonin receptor + RAMP-3) (Homo sapiens, UniProt O60896+P30988); assay: Assay (II)a functional assay, human amylin receptor (CRE luciferase, BHK cells); type: cell-based; conditions: for EC50: functional assay, human amylin receptor, read-out: hAmylin-R funct. EC50
T3 construct: expressed in transfected cells
T3 sequence (P30988 25-474): T1 sequence (P30988 25-474)
T3 sequence (O60896 24-148 partner): T1 sequence (O60896 24-148 partner)

[5] = human amylin receptor membranes, SPA
[6] = Table 6, human functional selectivity (hCTR EC50 / hAmylin-R EC50)
[7] = Table 6a, human functional selectivity (hCTR EC50 / hAmylin-R EC50), at least 5
[8] = Table 6j, hCTR funct. EC50 / hAmylin-R funct. EC50
[9] = Table 6k, hCTR funct. EC50 / hAmylin-R funct. EC50

IC50 (human amylin receptor; [5])	Solubility pH 6.5 Concentration (μM) [1]	Solubility pH 7.0 Concentration (μM) [1]	Solubility pH 7.5 Concentration (μM) [1]	Solubility pH 8.0 Concentration (μM) [1]	EC50 [2]	IC50 [3]	EC50 [4]	IC50 (human amylin receptor; binding to human amylin receptor)	Ratio hCT/hAmylin binding (human amylin receptor; human binding ratio, included for comparison)	Solubility pH 4.0 Concentration (μM) ([1]; pH 4.0, 18 hours room temperature)	Solubility pH 6.0 Concentration (μM) ([1]; pH 6.0, 18 hours room temperature)	Ratio hCT/hAmylin funct. [4, 6]	Ratio hCT/hAmylin funct. [4, 7]	Ratio hCT/hAmylin funct. [4, 8]	Ratio hCT/hAmylin funct. [4, 9]	SMILES
0.428 nM	≧200 μM	≧200 μM	147 μM	59 μM	5.4 nM	50.7 nM	0.145 nM									CC[C@H](C)[C@H](NC(=O)[C@H](C)NC(=O)CNC(=O)[C@H](Cc1ccccc1)NC(=O)[C@H](CC(N)=O)NC(=O)[C@@H]1CCCN1C(=O)[C@H](CO)NC(=O)[C@H](CO)NC(=O)[C@H](Cc1c[nH]cn1)NC(=O)[C@H](CCCNC(=N)N)NC(=O)[C@H](CC(C)C)NC(=O)[C@H](Cc1ccccc1)NC(=O)[C@H](CC(N)=O)NC(=O)[C@H](C)NC(=O)[C@H](CC(C)C)NC(=O)[C@H](CCCNC(=N)N)NC(=O)[C@H](CCC(N)=O)NC(=O)[C@@H](NC(=O)[C@H](C)NC(=O)[C@@H]1CSSC[C@H](NC(=O)[C@@H](N)CCCCNC(=O)CC[C@H](NC(=O)CCCCCCCCCCCCCCCCCCC(=O)O)C(=O)O)C(=O)N[C@@H](CC(N)=O)C(=O)N[C@@H]([C@@H](C)O)C(=O)N[C@@H](C)C(=O)N[C@@H]([C@@H](C)O)C(=O)N1)[C@@H](C)O)C(=O)N1CCC[C@H]1C(=O)N[C@@H](CO)C(=O)N[C@@H](CO)C(=O)N[C@H](C(=O)N[C@@H](CC(N)=O)C(=O)N[C@H](C(=O)NCC(=O)N[C@@H](Cc1c[nH]cn1)C(=O)N[C@@H](CC(N)=O)C(=O)N[C@H](C(=O)N[C@@H](Cc1ccc(O)cc1)C(N)=O)[C@@H](C)O)C(C)C)[C@@H](C)O [Example 77]
1.19 nM					89.6 nM	9.29 nM	5.17 nM	1.19 nM	7.8	7 μM	64 μM					CC[C@H](C)[C@H](NC(=O)[C@H](C)NC(=O)CNC(=O)[C@@H]1CCCN1C(=O)[C@H](CC(N)=O)NC(=O)[C@H](CC(N)=O)NC(=O)[C@H](CO)NC(=O)[C@H](CO)NC(=O)[C@H](Cc1c[nH]cn1)NC(=O)[C@H](CCCNC(=N)N)NC(=O)[C@H](CC(C)C)NC(=O)[C@H](Cc1ccccc1)NC(=O)[C@H](CCC(=O)O)NC(=O)[C@H](C)NC(=O)[C@H](CC(C)C)NC(=O)[C@H](CCCNC(=N)N)NC(=O)[C@H](CCC(N)=O)NC(=O)[C@@H](NC(=O)[C@H](C)NC(=O)[C@@H]1CSSC[C@H](NC(=O)[C@@H](N)CCCCNC(=O)CC[C@H](NC(=O)CC[C@H](NC(=O)CCCCCCCCCCCCCCCCCCC(=O)O)C(=O)O)C(=O)O)C(=O)N[C@@H](CC(N)=O)C(=O)N[C@@H]([C@@H](C)O)C(=O)N[C@@H](C)C(=O)N[C@@H]([C@@H](C)O)C(=O)N1)[C@@H](C)O)C(=O)N[C@@H](CC(C)C)C(=O)N[C@@H](CO)C(=O)N[C@@H](CO)C(=O)N[C@H](C(=O)N[C@@H](CC(N)=O)C(=O)N[C@H](C(=O)NCC(=O)N1CCC[C@H]1C(=O)N[C@@H](CCC(=O)O)C(=O)N[C@H](C(=O)N[C@@H](Cc1ccc(O)cc1)C(N)=O)[C@@H](C)O)C(C)C)[C@@H](C)O [Example 126] (H-K([γGlu-γGlu-C20 diacid])CNTATCATQRLAEFLRHSSNNPGAILSSTNVGPETY-NH2; disulfide 2-7)
0.568 nM	≧200 μM	≧200 μM	88 μM	43 μM	11.7 nM	58.9 nM	0.356 nM					33.0	33.0	33.0	33.0	CC[C@H](C)[C@H](NC(=O)[C@H](C)NC(=O)CNC(=O)[C@H](Cc1ccccc1)NC(=O)[C@H](CC(N)=O)NC(=O)[C@@H]1CCCN1C(=O)[C@H](CO)NC(=O)[C@H](CO)NC(=O)[C@H](Cc1c[nH]cn1)NC(=O)[C@H](CCCNC(=N)N)NC(=O)[C@H](CC(C)C)NC(=O)[C@H](Cc1ccccc1)NC(=O)[C@H](CC(N)=O)NC(=O)[C@H](C)NC(=O)[C@H](CC(C)C)NC(=O)[C@H](CCCNC(=N)N)NC(=O)[C@H](CCC(N)=O)NC(=O)[C@@H](NC(=O)[C@H](C)NC(=O)[C@@H]1CSSC[C@H](NC(=O)[C@@H](N)CCCCNC(=O)COCCOCCNC(=O)COCCOCCNC(=O)CC[C@H](NC(=O)CCCCCCCCCCCCCCCCCCC(=O)O)C(=O)O)C(=O)N[C@@H](CC(N)=O)C(=O)N[C@@H]([C@@H](C)O)C(=O)N[C@@H](C)C(=O)N[C@@H]([C@@H](C)O)C(=O)N1)[C@@H](C)O)C(=O)N1CCC[C@H]1C(=O)N[C@@H](CO)C(=O)N[C@@H](CO)C(=O)N[C@H](C(=O)N[C@@H](CC(N)=O)C(=O)N[C@H](C(=O)NCC(=O)N[C@@H](Cc1c[nH]cn1)C(=O)N[C@@H](CC(N)=O)C(=O)N[C@H](C(=O)N[C@@H](Cc1ccc(O)cc1)C(N)=O)[C@@H](C)O)C(C)C)[C@@H](C)O [Example 97]
	174 μM	182 μM	112 μM	32 μM								26.0	26.0	26.0	26.0	CC[C@H](C)[C@H](NC(=O)[C@H](C)NC(=O)CNC(=O)[C@H](Cc1ccccc1)NC(=O)[C@H](CC(N)=O)NC(=O)[C@@H]1CCCN1C(=O)[C@H](CO)NC(=O)[C@H](CO)NC(=O)[C@H](Cc1c[nH]cn1)NC(=O)[C@H](CCCNC(=N)N)NC(=O)[C@H](CC(C)C)NC(=O)[C@H](Cc1ccccc1)NC(=O)[C@H](CC(N)=O)NC(=O)[C@H](C)NC(=O)[C@H](CC(C)C)NC(=O)[C@H](CCCNC(=N)N)NC(=O)[C@H](CCC(N)=O)NC(=O)[C@@H](NC(=O)[C@H](C)NC(=O)[C@@H]1CSSC[C@H](NC(=O)[C@@H](N)CCCCNC(=O)CC[C@H](NC(=O)CC[C@H](NC(=O)CCCCCCCCCCCCCCCCCCC(=O)O)C(=O)O)C(=O)O)C(=O)N[C@@H](CC(N)=O)C(=O)N[C@@H]([C@@H](C)O)C(=O)N[C@@H](C)C(=O)N[C@@H]([C@@H](C)O)C(=O)N1)[C@@H](C)O)C(=O)N1CCC[C@H]1C(=O)N[C@@H](CO)C(=O)N[C@@H](CO)C(=O)N[C@H](C(=O)N1CCC[C@H]1C(=O)N[C@H](C(=O)NCC(=O)N1CCC[C@H]1C(=O)N[C@@H](CCCNC(=N)N)C(=O)N[C@H](C(=O)N[C@@H](Cc1ccc(O)cc1)C(N)=O)[C@@H](C)O)C(C)C)[C@@H](C)O [Example 119] (H-K([γGlu-γGlu-C20 diacid])CNTATCATQRLANFLRHSSPNFGAIPSSTPVGPRTY-NH2; disulfide 2-7 (inferred); N-terminus and C-terminus assumed)
